Key:
murine STING isoform = biological target: T1, murine STING isoform (Mus musculus, UniProt Q3TBT3); assay: Immunoblots of phosphorylated p65, RelB and IRF3 in C-176 treated tumor cells; type: cell-based
T1 construct: endogenous in cells
T1 sequence (Q3TBT3 1-378): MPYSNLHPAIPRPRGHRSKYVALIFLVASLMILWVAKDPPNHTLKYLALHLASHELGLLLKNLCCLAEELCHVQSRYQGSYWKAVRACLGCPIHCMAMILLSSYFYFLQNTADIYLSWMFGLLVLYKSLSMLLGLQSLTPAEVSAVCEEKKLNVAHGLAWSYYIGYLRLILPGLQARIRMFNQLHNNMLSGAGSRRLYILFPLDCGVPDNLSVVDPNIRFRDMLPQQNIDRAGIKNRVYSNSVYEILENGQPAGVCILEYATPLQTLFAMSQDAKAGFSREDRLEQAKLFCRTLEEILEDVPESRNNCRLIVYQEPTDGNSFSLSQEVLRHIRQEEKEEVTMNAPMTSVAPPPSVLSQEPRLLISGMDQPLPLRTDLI
Protocol: Immunoblotting: Cells were pelleted and lysed using RIPA buffer. Protein concentration was determined using BCA protein assay and 20-30 μg total protein were loaded in each lane. Proteins were separated by gradient SDS-PAGE and transferred to PVDF or nitrocellulose membranes. See Table 2 for antibody information. Membranes were imaged using the LI-COR Odyssey software. Relative STING protein levels were quantified by measuring band intensities on immunoblots using Image J software, background was subtracted and normalized to loading control. […] Cells were washed with ice-cold PBS and harvested using radio-immunoprecipitation assay (RIPA) lysis buffer containing protease and phosphatase inhibitors (Roche, Basel, Switzerland). Cells were lysed with a probe sonicator for 20 s. Protein quantification was performed using Pierce™ Rapid Gold BCA Protein Assay Kit (Thermo Fisher Scientific, Waltham, MA). Proteins were reduced at 95° C. for 5 mins with NuPAGE™ LDS Sample Buffer (4×) containing NuPAGE™ Sample Reducing Agent (10×). Lysates (40 μg protein/well) were resolved on NuPAGE™ 4-12% Bis-Tris Protein Gels (Invitro-gen) and transferred to polyvinylidene difluoride (PVDF) membranes (Thermo Fisher Scientific, Waltham, MA) using a wet transfer system. […] Images were captured by ChemiDoc Imaging Systems (Bio-Rad, UK) and densitometries were determined by ImageJ.

B16F10, 4T1, and CT26 = assay: Wound scratch assay for cell migration; type: cell-based, mouse; settings: C176 at 1 μM; all three metastatic cancer cell lines
Protocol: Wound scratch assay for cell migration: Tumor cell lines B16F10, 4T1, and CT26 were seeded in 6 well plates. When cells reached>90% confluence they were treated with 0.5 μM mitomycin C (M4287, Sigma-Aldrich, St. Louis, MO) for 2 hours, after which a wound was formed using a sterile p200 pipette tip. Thereafter cells were washed once with fresh media, following by treatment with C176 at 1 μM (Probechem, China) or DMSO control in media containing 1% FBS. Images were obtained at 0, 4, 8, and 12 hours using Olympus CKX53 microscope at 4× magnification. The wound surface area was measured and quantified using ImageJ software (MRI Wound Healing tool-dev.mri.cnrs.fr/projects/imagej-macros/wiki/Wound_Healing_Tool).

4T1 primary tumor = assay: Orthotopically transplanted primary 4T1 tumors, tumor size; type: in vivo, mouse; settings: orthotopic, vs vehicle
Protocol: (§1) Animal metastasis studies: Animal experiments were performed in accordance with protocols approved by the MSKCC Institutional Animal Care and Use Committee. […] There was no need to randomize animals. Investigators were not blinded to group allocation. For tail vein injections, 5×10^4 4T1, 2.5×10^4 B16F10, or 10^5 CT26 cells were injected into the tail vein of 6-7-week old BALB/c (4T1 and CT26) or C57BL/6 (B16F10) mice. Metastasis was primarily assessed through overall survival. Overall survival endpoint was met when the mice died or met the criteria for euthanasia under the IACUC protocol. […] Surface lung metastases were assessed at endpoint by direct visual examination after euthanasia at which points lungs were perfused and fixed in 4% paraformaldehyde (4T1 and B16F10 experiments) or stained using India-ink (CT26 experiments). Furthermore, lung metastasis after injection of 4T1 cells was qualitatively assessed using routine hematoxylin and eosin (H&E) staining. […] Primary tumors were surgically excised on day 7 after implantation and metastatic dissemination was assessed by monitoring overall survival or on day 30 through quantification of surface lung metastases upon euthanasia. The length (L) and width (W) of the primary tumors were measured using calipers. Tumor size was calculated according to the following formula: L*W2/2. […]

STING-KO B16F10 cells = assay: Tail vein inoculation of STING-KO B16F10 cells in C57BL/6 mice, survival; type: in vivo, mouse; settings: C57BL/6 mice inoculated with STING-KO B16F10 cells
Protocol: as §1

With `O=C(Nc1ccc(I)cc1)c1ccc([N+](=O)[O-])o1` [C-176] the “phosphorylated pools of the NF-κB transcription factors p65 and RelB” value (murine STING isoform; baseline, B16F10, 4T1, CT26 cells) was “significant reductions”, the IRF3 phosphorylation (murine STING isoform; upon transfection of 20 μg/ml cGAMP) was “suppressed” and the migration (B16F10, 4T1, and CT26) was “significant reductions”. The “4T1 primary tumor size” value (4T1 primary tumor) was “did not have a significant impact” and the “survival advantage beyond STING KO” value (STING-KO B16F10 cells) was “did not provide an additional survival advantage”.

Source: patent US20230324392A1, “METHODS AND COMPOSITIONS FOR TARGETING CYTOSOLIC DSDNA SIGNALING IN CHROMOSOMALLY UNSTABLE CANCERS” (MEMORIAL SLOAN KETTERING CANCER CENTER, priority 2020, published 2023)
